Legend:
[1] = Inhibition of monkey NNMT preincubated for 30 mins followed by substrate, cofactor addition and measured after 60 mins using nicotinamide as substrate and SAM as cofactor by fluorescence enzymatic assay; parameters: species or system Macaca mulatta
[2] = biological target: T1, Nicotinamide N-methyltransferase (Homo sapiens) (UniProt P40261); test: Inhibition of human NNMT at 30 uM preincubated for 30 mins followed by substrate, cofactor addition and measured after 60 mins using nicotinamide as substrate and SAM as cofactor by fluorescence enzymatic assay; conditions: time 90.0 min
T1 sequence (whole entry): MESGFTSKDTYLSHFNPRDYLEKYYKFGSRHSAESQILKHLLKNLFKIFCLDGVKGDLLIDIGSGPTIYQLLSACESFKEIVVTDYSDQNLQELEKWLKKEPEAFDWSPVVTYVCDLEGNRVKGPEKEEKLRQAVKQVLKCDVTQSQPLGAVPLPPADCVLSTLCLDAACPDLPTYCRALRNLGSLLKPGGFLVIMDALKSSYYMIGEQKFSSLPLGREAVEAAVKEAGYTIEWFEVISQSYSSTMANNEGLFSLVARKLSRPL

[3] = biological target: T1, Nicotinamide N-methyltransferase (Homo sapiens); test: Inhibition of recombinant human NNMT expressed in Escherichia coli BL21 (DE3) assessed as Kobs/[I] ratio and measured after 20 mins using nicotinamide as substrate and SAM as cofactor by MTase-Glo reagent based assay
[4] = biological target: T1, Nicotinamide N-methyltransferase (Homo sapiens); test: Inhibition of NNMT (unknown origin) assessed as formation of MNA at 0.5 uM using nicotinamide as substrate and SAM as cofactor by fluorescence based assay
[5] = substrate: NC(=O)c1cccnc1; test: Binding affinity to recombinant human NNMT expressed in Escherichia coli BL21 (DE3) assessed as Km preincubated for 10 mins followed by NAM addition and measured after 10 mins by Michaelis-Menten analysis; conditions: time 20.0 min
[6] = substrate: C[S+](CC[C@H](N)C(=O)[O-])C[C@H]1O[C@@H](n2cnc3c(N)ncnc32)[C@H](O)[C@@H]1O; test: Binding affinity to recombinant human NNMT expressed in Escherichia coli BL21 (DE3) assessed as Km preincubated for 10 mins followed by SAM addition and measured after 10 mins by Michaelis-Menten analysis; conditions: time 20.0 min

COc1ccc(C(N)=O)cn1
IC50 [1]: 2800 nM

CNC(=O)c1ccc(OC)nc1
inhibition [2]: 20%

Clc1ccncc1
Ratio [3]: 20 M⁻¹ min⁻¹

NC(=O)c1cnccc1Cl
Ratio [3]: 80 M⁻¹ min⁻¹

C=C(C)[C@@]12O[C@@]3(/C=C/C=C/CCCCC)O[C@@H]1[C@@H]1[C@@H]4O[C@]4(CO)[C@@H](O)[C@]4(O)C(=O)C(C)=C[C@H]4[C@@]1(O3)[C@H](C)[C@H]2OC(C)=O
inhibition [4]: 50%

B1: Nicotinamide N-methyltransferase (Homo sapiens), P40261 (protein)
chain: MESGFTSKDTYLSHFNPRDYLEKYYKFGSRHSAESQILKHLLKNLFKIFCLDGVKGDLLIDIGSGPTIYQLLSACESFKEIVVTDYSDQNLQELEKWLKKEPEAFDWSPVVTYVCDLEGNRVKGPEKEEKLRQAVKQVLKCDVTQSQPLGAVPLPPADCVLSTLCLDAACPDLPTYCRALRNLGSLLKPGGFLVIMDALKSSYYMIGEQKFSSLPLGREAVEAAVKEAGYTIEWFEVISQSYSSTMANNEGLFSLVARKLSRPL
Km [5]: 199 µM
Km [6]: 8.5 µM
